Assays:
Assay type in all cases: binding
[1] = molecular target: Recombinant human integrin αvβ3 (Homo sapiens (Human), UniProt P05106+P06756); assay: Solid Phase Receptor Assay (SPRA) for αvβ3 function; conditions: vitronectin-coated plate
Protocol: 3. Solid Phase Receptor Assay (SPRA) for αvβ3 Function
Recombinant human vitronectin (R& D Systems, 2308-VN) diluted to 1 μg/mL in TBS+ buffer (25 mM Tris pH 7.4, 137 mM NaCl, 2.7 mM KCl, 1 mM CaCl2, 1 mM MgCl2, 1 mM MnCl2) was added to wells (50 μL/well) of a 96-well half-well transparent microtiter plate (Greiner 675061) and incubated overnight at 4° C. Wells were washed 3 times with 150 μL TBS+ and 150 μL of blocking buffer (TBS+ with 1% bovine serum albumin, Sigma A7906) were added. The plate was incubated for 1 hr at 37° C. and then washed 3× with TBS+ buffer. Recombinant human integrin αvβ3 (R&D Systems, 3050-AV) was diluted to 1 μg/mL in TBS+/0.1% bovine serum albumin. Compounds were diluted 1:100 into the integrin solution and then 50 μL added to empty wells of the washed vitronectin-coated plate according to a standard template with each sample repeated in triplicate. After incubation for two hours at room temperature, the plate was washed 3× with 150 μL of TBS+ buffer. To each well, 50 μL of biotinylated anti-αv antibody (R&D Systems, BAF1219) at 0.5 μg/mL in TBS+/0.1% BSA were added and the plate covered and incubated for 1 hr at room temperature. After washing the plate 3× with 150 μL of TBS+ buffer, 50 μL of streptavidin-conjugated horseradish peroxidase (R&D Systems, DY998) diluted in TBS+ blocking buffer were added to the wells and the plate incubated for 20 min at room temperature. The plate was washed 3× with TBS+ buffer followed by 50 μL of TMB substrate (Sigma, T4444) added to each well and the plate was incubated for 20 min at room temperature. Plates were read by colorimetric detection at 650 nm wavelength using a Tecan Safire II plate reader. Concentration-response curves were constructed by non-linear regression (best fit) analysis, and IC50 values were calculated for each compound.

[2] = molecular target: Recombinant human integrin α8β1 (Homo sapiens (Human), UniProt P05556+P53708); assay: Solid Phase Receptor Assay (SPRA) for α8β1 function; conditions: mouse nephronectin-coated plate
Chain of Recombinant human integrin α8β1 (P53708 39-1012): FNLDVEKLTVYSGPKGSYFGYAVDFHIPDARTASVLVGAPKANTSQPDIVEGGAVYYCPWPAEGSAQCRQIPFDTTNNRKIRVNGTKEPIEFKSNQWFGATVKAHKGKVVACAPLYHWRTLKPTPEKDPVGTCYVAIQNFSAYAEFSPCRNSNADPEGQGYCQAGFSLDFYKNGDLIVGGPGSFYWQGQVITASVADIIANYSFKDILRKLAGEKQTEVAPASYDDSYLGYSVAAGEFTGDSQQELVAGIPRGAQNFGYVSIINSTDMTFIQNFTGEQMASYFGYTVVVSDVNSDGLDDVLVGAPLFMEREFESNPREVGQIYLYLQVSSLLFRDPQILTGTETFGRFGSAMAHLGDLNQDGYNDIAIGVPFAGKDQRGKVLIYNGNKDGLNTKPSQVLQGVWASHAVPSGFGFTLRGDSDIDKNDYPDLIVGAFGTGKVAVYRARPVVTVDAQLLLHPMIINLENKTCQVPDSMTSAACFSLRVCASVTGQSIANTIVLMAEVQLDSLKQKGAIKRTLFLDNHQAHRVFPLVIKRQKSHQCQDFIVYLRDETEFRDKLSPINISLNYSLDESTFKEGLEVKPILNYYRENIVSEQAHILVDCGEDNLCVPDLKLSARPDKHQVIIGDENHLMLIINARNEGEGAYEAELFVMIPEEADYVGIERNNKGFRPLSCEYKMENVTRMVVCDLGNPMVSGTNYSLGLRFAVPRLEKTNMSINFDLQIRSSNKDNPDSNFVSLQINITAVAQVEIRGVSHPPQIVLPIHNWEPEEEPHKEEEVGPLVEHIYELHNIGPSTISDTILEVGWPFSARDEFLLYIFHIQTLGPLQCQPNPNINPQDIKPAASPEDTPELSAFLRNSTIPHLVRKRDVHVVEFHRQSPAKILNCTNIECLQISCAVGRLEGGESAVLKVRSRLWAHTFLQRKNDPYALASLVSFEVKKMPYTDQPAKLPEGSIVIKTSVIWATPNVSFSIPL
Chain of Recombinant human integrin α8β1 (P05556 21-728): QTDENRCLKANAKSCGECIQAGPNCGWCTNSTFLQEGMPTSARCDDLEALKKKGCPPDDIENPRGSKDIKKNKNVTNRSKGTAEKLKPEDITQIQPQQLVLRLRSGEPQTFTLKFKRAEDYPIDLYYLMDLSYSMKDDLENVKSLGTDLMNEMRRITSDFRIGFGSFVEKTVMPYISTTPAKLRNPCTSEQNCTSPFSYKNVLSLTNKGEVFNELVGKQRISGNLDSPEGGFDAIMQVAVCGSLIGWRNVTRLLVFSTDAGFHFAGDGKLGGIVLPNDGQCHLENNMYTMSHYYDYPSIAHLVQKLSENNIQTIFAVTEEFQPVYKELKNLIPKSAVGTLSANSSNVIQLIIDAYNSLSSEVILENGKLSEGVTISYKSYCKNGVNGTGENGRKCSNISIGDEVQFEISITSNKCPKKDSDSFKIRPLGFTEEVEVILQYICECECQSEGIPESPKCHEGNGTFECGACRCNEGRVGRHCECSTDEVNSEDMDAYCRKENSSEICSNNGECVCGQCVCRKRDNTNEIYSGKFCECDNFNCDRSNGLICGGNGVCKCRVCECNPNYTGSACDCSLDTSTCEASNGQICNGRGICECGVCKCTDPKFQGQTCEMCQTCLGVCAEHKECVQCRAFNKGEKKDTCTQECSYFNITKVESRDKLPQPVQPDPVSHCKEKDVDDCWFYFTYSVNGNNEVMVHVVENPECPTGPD
Protocol: 7. Solid Phase Receptor Assay (SPRA) for α8β1 Function
Recombinant mouse nephronectin protein (R&D Systems, Inc, 4298-NP) diluted to 1 μg/mL in TBS+ buffer (25 mM Tris pH 7.4, 137 mM NaCl, 2.7 mM KCl, 1 mM CaCl2, 1 mM MgCl2, 1 mM MnCl2) was added to wells (50 μl/well) of a 96-well half-well transparent microtiter plate (Greiner 675061), and incubated overnight at 4° C. Wells were washed 3 times with 150 μL TBS+ and 150 μL of blocking buffer (TBS+ with 1% bovine serum albumin, Sigma A7906) were added. The plate was incubated for 1 hr at 37° C. and then washed 3× with TBS+. Recombinant human integrin α8β1 (R&D Systems, pre-launch) was diluted to 0.25 μg/mL in TBS+/0.1% bovine serum albumin. Compounds were diluted 1:100 into the integrin solution and 50 μL added to empty wells of the washed nephronectin-coated plate according to a standard template with each sample repeated in triplicate. After incubation for two hours at room temperature, the plate was washed 3× with 150 μL of TBS+. To each well, 50 μL of biotinylated anti-β antibody (R&D Systems, BAF1778) at 0.5 μg/mL in TBS+/0.1% BSA were added and the plate was covered and incubated for 1 hr at room temperature. After washing the plate 3× with 150 μL of TBS+ buffer, 50 μL of streptavidin-conjugated horseradish peroxidase (R&D Systems, DY998) diluted in TBS+ blocking buffer were added to the wells and the plate incubated for 20 min at room temperature. The plate was washed 3× with TBS+ followed by 50 μL of TMB substrate (Sigma T4444) added to each well and the plate incubated for 20 min at room temperature. Plates were read by colorimetric detection at 650 nm wavelength using a Tecan Safire II plate reader. Concentration-response curves were constructed by non-linear regression (best fit) analysis, and IC50 values were calculated for each compound.

[3] = molecular target: Recombinant human integrin αvβ6 (Homo sapiens (Human), UniProt P06756+P18564); assay: Solid Phase Receptor Assay (SPRA) for αvβ6 function; conditions: LAP-coated plate
Chain of Recombinant human integrin αvβ6 (P06756 31-992): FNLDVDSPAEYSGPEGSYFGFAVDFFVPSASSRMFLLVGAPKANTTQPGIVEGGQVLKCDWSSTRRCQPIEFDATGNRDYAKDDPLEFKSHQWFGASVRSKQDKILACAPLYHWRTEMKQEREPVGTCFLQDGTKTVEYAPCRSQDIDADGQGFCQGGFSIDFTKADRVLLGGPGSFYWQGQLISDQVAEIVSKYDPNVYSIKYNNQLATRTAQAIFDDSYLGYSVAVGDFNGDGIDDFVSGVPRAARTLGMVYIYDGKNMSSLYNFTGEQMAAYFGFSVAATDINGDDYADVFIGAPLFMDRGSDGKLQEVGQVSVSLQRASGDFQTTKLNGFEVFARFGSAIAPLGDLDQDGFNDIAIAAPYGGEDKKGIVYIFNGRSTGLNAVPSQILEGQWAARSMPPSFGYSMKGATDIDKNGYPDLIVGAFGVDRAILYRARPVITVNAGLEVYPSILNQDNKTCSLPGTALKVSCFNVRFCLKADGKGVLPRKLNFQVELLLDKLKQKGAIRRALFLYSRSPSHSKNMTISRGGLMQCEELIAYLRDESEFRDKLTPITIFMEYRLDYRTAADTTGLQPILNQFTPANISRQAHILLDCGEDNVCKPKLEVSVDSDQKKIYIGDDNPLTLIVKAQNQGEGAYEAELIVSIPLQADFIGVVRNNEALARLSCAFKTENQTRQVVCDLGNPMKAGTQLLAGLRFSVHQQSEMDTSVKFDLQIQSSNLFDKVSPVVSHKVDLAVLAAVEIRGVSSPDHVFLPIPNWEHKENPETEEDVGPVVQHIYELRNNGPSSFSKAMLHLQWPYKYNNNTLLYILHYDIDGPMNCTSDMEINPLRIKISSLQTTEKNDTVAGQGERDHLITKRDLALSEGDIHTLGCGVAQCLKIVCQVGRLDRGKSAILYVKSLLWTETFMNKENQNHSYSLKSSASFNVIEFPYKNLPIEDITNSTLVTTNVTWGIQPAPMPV
Chain of Recombinant human integrin αvβ6 (P18564 22-707): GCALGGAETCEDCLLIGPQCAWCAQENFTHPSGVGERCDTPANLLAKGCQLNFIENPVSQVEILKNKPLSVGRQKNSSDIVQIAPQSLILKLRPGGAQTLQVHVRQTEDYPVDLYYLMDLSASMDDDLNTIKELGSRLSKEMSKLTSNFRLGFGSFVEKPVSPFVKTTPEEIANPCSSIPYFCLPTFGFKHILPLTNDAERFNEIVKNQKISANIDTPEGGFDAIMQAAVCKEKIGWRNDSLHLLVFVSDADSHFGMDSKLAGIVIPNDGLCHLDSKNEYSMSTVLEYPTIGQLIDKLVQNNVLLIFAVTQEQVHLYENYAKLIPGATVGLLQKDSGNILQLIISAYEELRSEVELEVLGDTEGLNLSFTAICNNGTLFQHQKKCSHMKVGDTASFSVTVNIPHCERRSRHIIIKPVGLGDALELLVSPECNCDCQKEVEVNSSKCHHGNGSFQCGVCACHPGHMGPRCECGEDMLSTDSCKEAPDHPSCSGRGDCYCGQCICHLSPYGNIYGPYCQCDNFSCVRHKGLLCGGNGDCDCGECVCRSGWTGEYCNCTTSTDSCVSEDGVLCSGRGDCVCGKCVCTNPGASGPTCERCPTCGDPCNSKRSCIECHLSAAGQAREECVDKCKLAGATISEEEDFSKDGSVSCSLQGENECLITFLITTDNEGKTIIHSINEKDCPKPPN
Protocol: 5. Solid Phase Receptor Assay (SPRA) for αvβ6 Function
Recombinant human LAP (R&D Systems, 246-LP) diluted to 0.25 μg/mL in TBS+ buffer (25 mM Tris pH 7.4, 137 mM NaCl, 2.7 mM KCl, 1 mM CaCl2, 1 mM MgCl2, 1 mM MnCl2) was added to wells (50 μL/well) of a 96-well half-well transparent microtiter plate (Greiner 675061) and incubated overnight at 4° C. Wells were washed 3 times with 150 μL TBS+, and 150 μL of blocking buffer (TBS+ with 1% bovine serum albumin, Sigma A7906) were added. The plate was incubated for 1 hr at 37° C., and then washed 3× with TBS+ buffer. Recombinant human integrin αvβ6 (R&D Systems, 3817-AV) was diluted to 0.1 μg/mL in TBS+/0.1% bovine serum albumin. Compounds were diluted 1:100 into the integrin solution and then 50 μL added to empty wells of the washed LAP-coated plate according to a standard template with each sample repeated in triplicate. After incubation for two hours at room temperature, the plate was washed 3× with 150 μL of TBS+ buffer. To each well, 50 μL of biotinylated anti-αv antibody (R&D Systems, BAF1219) at 0.5 μg/mL in TBS+/0.1% BSA were added and the plate was covered and incubated for 1 hr at room temperature. After washing the plate 3× with 150 μL of TBS+ buffer, 50 μL of streptavidin-conjugated horseradish peroxidase (R&D Systems, DY998) diluted in TBS+ blocking buffer were added to the wells and the plate incubated for 20 min at room temperature. The plate was washed 3× with TBS+ buffer followed by 50 μL of TMB substrate (Sigma T4444) added to each well and the plate incubated for 20 min at room temperature. Plates were read by colorimetric detection at 650 nm wavelength using a Tecan Safire II plate reader. Concentration-response curves were constructed by non-linear regression (best fit) analysis, and IC50 values were calculated for each compound.

Chain of Recombinant human integrin αvβ3 (P06756 31-992): as the sequence (P06756 31-992) above
Chain of Recombinant human integrin αvβ3 (P05106 27-718): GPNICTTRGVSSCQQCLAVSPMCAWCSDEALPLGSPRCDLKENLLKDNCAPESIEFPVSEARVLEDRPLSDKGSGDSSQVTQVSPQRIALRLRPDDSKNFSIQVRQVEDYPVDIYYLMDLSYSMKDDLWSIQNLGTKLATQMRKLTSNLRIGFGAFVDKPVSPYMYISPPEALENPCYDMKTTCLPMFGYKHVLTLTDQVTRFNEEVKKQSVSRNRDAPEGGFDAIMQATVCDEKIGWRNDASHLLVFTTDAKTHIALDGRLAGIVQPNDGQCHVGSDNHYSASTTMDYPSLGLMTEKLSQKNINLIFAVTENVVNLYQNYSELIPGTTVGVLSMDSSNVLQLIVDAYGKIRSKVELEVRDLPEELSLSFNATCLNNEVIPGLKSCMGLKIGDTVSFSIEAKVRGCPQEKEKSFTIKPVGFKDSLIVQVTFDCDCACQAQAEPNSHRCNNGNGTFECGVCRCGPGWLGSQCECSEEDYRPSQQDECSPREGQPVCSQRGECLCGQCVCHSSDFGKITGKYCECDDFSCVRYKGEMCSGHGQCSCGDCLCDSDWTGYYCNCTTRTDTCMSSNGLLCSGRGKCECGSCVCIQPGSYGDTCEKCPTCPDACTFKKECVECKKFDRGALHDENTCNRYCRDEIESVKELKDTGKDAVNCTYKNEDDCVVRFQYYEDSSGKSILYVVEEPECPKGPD

Compound | IC50 [1] | IC50 [2] | IC50 [3]
O=C(O)CC(NC(=O)CNC(=O)c1cc(O)cc(NC2=NCC(O)CN2)c1)c1cc(Cl)cc(Cl)c1O (stereo not drawn) [Example C3, reference compound] | 2 nM | 14 nM | 1 nM
O=C(O)C[C@H](NC(=O)CNC(=O)c1cncc(NC2=NCC(O)CN2)c1)c1cc(Br)cc(C(F)(F)F)c1 (stereo partly drawn) [Example 9, (3S)-3-[3-bromo-5-(trifluoromethyl)phenyl]-3-[[2-[[5-[(5-hydroxy-1,4,5,6-tetrahydropyrimidin-2-yl)amino]pyridine-3-carbonyl]amino]acetyl]amino]propanoic acid] | 3 nM | 0.5 nM | 0.3 nM
O=C(O)C[C@H](NC(=O)CNC(=O)c1cncc(NC2=NCC(O)CN2)c1)c1cc(Cl)cc(Br)c1 (stereo partly drawn) [Example 8, (3S)-3-(3-bromo-5-chloro-phenyl)-3-[[2-[[5-[(5-hydroxy-1,4,5,6-tetrahydropyrimidin-2-yl)amino]pyridine-3-carbonyl]amino]acetyl]amino]propanoic acid] | 4 nM | 0.6 nM | 0.4 nM
Cc1ccc(O)c(C(CC(=O)O)NC(=O)CNC(=O)c2cc(O)cc(NC3=NCC(O)CN3)c2)c1 (stereo not drawn) [Example C6, reference compound] | 6 nM | 17 nM | 1 nM
O=C(O)C[C@H](NC(=O)CNC(=O)c1cc(O)cc(NC2=NCC(O)CN2)c1)c1cc(Cl)cc(Cl)c1 (stereo partly drawn) [Example 15, (3S)-3-[3,5-dichloro-phenyl)-3-(2-(3-hydroxy-5-((5-hydroxy-1,4,5,6-tetrahydropyrimidin-2-yl)amino)benzamido)acetamido)propanoic acid] | 4 nM | 1.2 nM | 0.6 nM
O=C(O)C[C@H](NC(=O)CNC(=O)c1cc(O)cc(NC2=NCC(O)CN2)c1)c1cc(Cl)cc(C(F)(F)F)c1 (stereo partly drawn) [Example 5, (3S)-3-[3-chloro-5-(trifluoromethyl)phenyl)-3-(2-(3-hydroxy-5-((5-hydroxy-1,4,5,6-tetrahydropyrimidin-2-yl)amino)benzamido)acetamido]propanoic acid] | 3 nM | 0.9 nM | 0.5 nM

Now from value to compound:

IC50 [1] | IC50 [2] | IC50 [3] | Compound
1 nM | 0.5 nM | 0.4 nM | O=C(O)C[C@H](NC(=O)CNC(=O)c1cc(O)cc(NC2=NCC(O)CN2)c1)c1cc(Cl)cc(Br)c1 (stereo partly drawn) [Example 6, (3S)-3-[3-bromo-5-chloro-phenyl)-3-(2-(3-hydroxy-5-((5-hydroxy-1,4,5,6-tetrahydropyrimidin-2-yl)amino)benzamido)acetamido]propanoic acid]
2 nM | 0.7 nM | 0.5 nM | Cc1cc(Br)cc([C@H](CC(=O)O)NC(=O)CNC(=O)c2cc(O)cc(NC3=NCC(O)CN3)c2)c1 (stereo partly drawn) [Example 11, (3S)-3-[3-bromo-5-methyl-phenyl)-3-(2-(3-hydroxy-5-((5-hydroxy-1,4,5,6-tetrahydropyrimidin-2-yl)amino)benzamido)acetamido)propanoic acid]
4 nM | 0.8 nM | 0.6 nM | Cc1cc(Cl)cc([C@H](CC(=O)O)NC(=O)CNC(=O)c2cc(O)cc(NC3=NCC(O)CN3)c2)c1 (stereo partly drawn) [Example 12, (3S)-3-[3-chloro-5-methyl-phenyl)-3-(2-(3-hydroxy-5-((5-hydroxy-1,4,5,6-tetrahydropyrimidin-2-yl)amino)benzamido)acetamido)propanoic acid]

Reference: patent US10035778B2, “Meta-azacyclic amino benzoic acid derivatives as pan integrin antagonists” (Saint Louis University, priority 2015, dated 2018)
